Experimental data published in paper PMC10305119, “Analogs of 6-Bromohypaphorine with Increased Agonist Potency for α7 Nicotinic Receptor as Anti-Inflammatory Analgesic Agents” (Marine Drugs, 2023).
Like-named read-outs stand apart in the source and are kept apart here.

Tests used:
α7 nAChR = test system: α7 nAChR; design: method as in PMID 25775422; settings: cited from earlier work; for EC50: read-out: EC50 / potency for α7 nAChR
[1] = test system: CD86 expression on macrophages; assay: Flow cytometry of CD86 protein on macrophages; type: cell-based, human; settings: 48 h incubation
Experimental: (§1) The effect of the above-listed compounds on the expression of the TLR4 receptor and the CD86 protein was studied by flow cytometry after 48 h incubation with macrophages. The interaction of bacterial endotoxins with the TLR4 receptor is known to activate the expression of several pro-inflammatory cytokine genes, while the co-stimulatory molecule CD86 plays an important role in […] inflammatory responses. A decrease in the expression of the TLR4 receptor was observed under the action of all tested compounds (Figure 4c,e), the rank order of these TLR4-suppressing effects was as follows: hypaphorine (14%) < PNU 282,987 (21%) < 6ID (31%).
(§2) Peripheral blood mononuclear cells (PBMCs) were separated by Ficoll-Paque PLUS density gradient centrifugation. PBMCs were placed in a sterile Petri dish and incubated at 37 °C for 2 h. Unattached cells were then removed by washing with PBS and substituted with fresh complete RPMI 1640 medium. To generate monocyte-derived macrophages (MDMs), 50 ng/mL GM-CSF was added to the isolated monocytes and cultured for 6 days to differentiate them into non-polarized MDMs.
(§3) Figure 4 The effects of PNU 282987, hypaphorine, and D-6-iodohypaphorine methyl ester (6ID) on macrophage membrane proteins expression. Cells were treated with these compounds for 48 h and then analyzed by flow cytometry. PNU 282,987 led to an increase in the (a) CD11b and (b) CD11c expression. (c): All tested compounds led to a decrease in TLR4 expression. (d): Macrophages stimulation with hypaphorine and 6ID promoted an increase in CD86 expression. Results obtained in three independent experiments on macrophages from different donors and presented as mean ± SD. One-way ANOVA tests with Tukey post hoc test: * p ˂0.05, ** p ˂ 0.01, **** p < 0.0001 in comparison with untreated cells.

human α7 nAChR = target: T1, human α7 nAChR (Homo sapiens, UniProt P36544); assay: Calcium fluorescence assay on α7 nAChR expressed in Neuro2a cells, in the presence of PNU120596; type: cell-based; settings: for EC50: human α7 nAChR in Neuro2a cells, PNU120596 10 μM present
T1 construct: expressed in transfected cells; host or cells: mouse neuroblastoma Neuro2a, transient co-transfection with Ric-3 (Ric3-pCMV6-XL5, OriGene) and the calcium sensor Case12
Experimental: A panel of the synthesized compounds was tested to determine their activity on α7 nAChR by fluorescence detection of cytoplasmic calcium rise (Figure 2a).
Mouse neuroblastoma Neuro2a cells were purchased from the Russian collection of cell cultures (Institute of Cytology, Russian Academy of Sciences, Saint Petersburg, Russia). Cells were cultured in Dulbecco’s modified Eagle’s essential medium (Paneco, Moscow, Russia) supplemented with 10% fetal bovine serum (Sigma, St. Louis, MO, USA). The cells one day before transfection were subcultured and plated at a density of 10,000 cells per well on a 96-well plate. The next day, Neuro2a cells were transiently transfected with plasmids coding α7 nAChR (human α7 nAChR-pCEP4) or its mutants, the chaperone Ric-3 (Ric3-pCMV6-XL5, OriGene, USA) and a fluorescent calcium sensor Case12 (pCase12-cyto vector, Evrogen, Russia) in molar ratio 4:1:1. Lipofectamine transfection protocol (Invitrogen, Waltham, MA, USA) was performed as recommended by the manufacturer. Transfected cells were grown at 37 °C in a CO2 incubator for 48 h.
Calcium […] assay was performed as described previously. Briefly, Transfected Neuro2a cells were grown on black 96-well plates (Corning, Somerville, MA, USA) at 37 °C in a CO2 incubator for 72 h, then growth medium was substituted with buffer containing 140 mM NaCl, 2 mM CaCl2, 2.8 mM KCl, 4 mM MgCl2, 20 mM HEPES, 10 mM glucose; pH 7.4.
Cells were incubated with the α7 nAChR positive allosteric modulator PNU120596 (10 μM, Tocris, Bristol, UK) for 20 min at room temperature before the addition of tested compounds. Plates were measured in microplate reader Hidex Sence (Hidex, Turku, Finland) using excitation at 485 nm and emission at 535 ± 10 nm. Fluorescence peak intensity in each well was expressed as a percentage of the maximal obtained response. Data files were analysed using Hidex Sence software (Hidex, Turku, Finland). Controls were run in the presence of 4 μM α-cobratoxin.
The R statistical programming environment “https://www.r-project.org/” (accessed on 16 June 2023) was used to analyze the results. Base R graphics and ggplot2 [54] graphical library were used for the data visualisation. Dose-response curves were fitted using “nlm” function and the following equation: response ~ (100/1 + (EC50/x)^n), where x denotes base 10 logarithm of ligand concentration in moles per liter (normalized to 1M) and n is the Hill coefficient. Libraries “rgl” “https://CRAN.R-project.org/package=rgl” (accessed on 16 May 2023) and “barplot3d” “https://cran.r-project.org/src/contrib/Archive/barplot3d/” (accessed on 16 May 2023) were used to generate the 3D bar chart shown on Figure 2b.
Figure 2 In vitro activity determination of the synthesized compounds. […] The receptor activation was detected as an increase in fluorescent signal in cell cytoplasm by fluorescence microscopy or as total fluorescence of the well in 96-well plate reader setup. Normalized fluorescence amplitude was plotted against base 10 logarithm of mole per liter concentration of the tested agonist and EC50 values were than calculated using dose-response equation. […] Substitutions in the 6th position of the indole ring (designated as X) were halogens (green shadow), hydrogen bond acceptors (yellow shadow) or hydrogen bond donors (blue shadow). Carboxy group modifications were comprised by free acid (Q = OH), ethers (Q = OCH3, OC2H5), and amides (Q = NH2, NHCH3).

[2] = target: T2, human α3-containing nAChRs (Homo sapiens, UniProt P32297); assay: Calcium imaging of α3-containing nAChRs in SH-SY5Y cells (nicotine-induced calcium rise); type: cell-based; settings: for agonism on α3* nAChR (calcium response): compound alone
T2 construct: endogenous in cells; host or cells: human neuroblastoma SH-SY5Y
Experimental: Two of the studied compounds with high and medium agonist potency for α7 nAChR (6CF and 6ID, Table 1) were tested for activity toward α3* nAChR by calcium imaging.
Normalized data are presented as mean ± standard error. n = 6–7.

STAT3 phosphorylation = STAT3 phosphorylation in LPS-stimulated macrophages (flow cytometry); type: cell-based, human; settings: compound 1 h, then LPS 3 h; control MFI 49
Experimental: To gain an insight into the signaling induced by the tested compounds, ERK1/2 and STAT3 phosphorylation was checked. Macrophages were treated with tested compounds for 1 h, after which they were stimulated with LPS for 3 h.
as §2
Figure 5 Effects of the analyzed compounds on signaling pathways in LPS-stimulated macrophages. Cells were treated with PNU 282987, hypaphorine, or 6-iodohypaphorine methyl ester (6ID) for 1 h and then stimulated with LPS for 3 h. Phosphorylated ERK1/2 and STAT3 were quantified by flow cytometry with specific antibodies. […] (c): Representative histogram showing the increase in ERK 1/2 phosphorylation in comparison to control. The numbers in the histograms show the MFI ± SD (n = 3). MFI—geometrical mean fluorescence intensity. One-way ANOVA tests with Tukey post hoc test: * p ˂ 0.05, ** p ˂ 0.01, *** p < 0.001 in comparison with untreated cells. TEXT PRINTED IN THE PICTURE: (c) Control: PE-ERK 1/2 Phospho: 193.7±1.5 | (c) PNU 282987: PE-ERK 1/2 Phospho: 251.3±13.7 | (c) Hy: PE-ERK 1/2 Phospho: 246.0±15.7 | (c) 6ID: PE-ERK 1/2 Phospho: 273.7±8.1 DOUBTS OF THE COPYIST ABOUT THIS PICTURE: Panel c: no measure or unit is printed beside the numbers; the x-axis label "PE-ERK 1/2 Phospho" is used as the measure / "Control" is the untreated reference rather than a substance; it is included because a value is printed with it

[3] = test system: TLR4 expression on macrophages; assay: Flow cytometry of TLR4 receptor on macrophages; type: cell-based, human; settings: 48 h incubation
Experimental: as §1, §2, §3

[4] = test system: CD11b expression on macrophages; assay: Flow cytometry of macrophage membrane protein CD11b; type: cell-based, human; settings: 48 h
Experimental: (§4) The selective agonist PNU 282,987 increased CD11b and CD11c protein expression by an average of 10% and 26%, respectively (Figure 4a,b).
as §2, §3

[5] = test system: CD11c expression on macrophages; assay: Flow cytometry of macrophage membrane protein CD11c; type: cell-based, human; settings: 48 h
Experimental: as §4, §2, §3

T1 sequence (P36544 23-502): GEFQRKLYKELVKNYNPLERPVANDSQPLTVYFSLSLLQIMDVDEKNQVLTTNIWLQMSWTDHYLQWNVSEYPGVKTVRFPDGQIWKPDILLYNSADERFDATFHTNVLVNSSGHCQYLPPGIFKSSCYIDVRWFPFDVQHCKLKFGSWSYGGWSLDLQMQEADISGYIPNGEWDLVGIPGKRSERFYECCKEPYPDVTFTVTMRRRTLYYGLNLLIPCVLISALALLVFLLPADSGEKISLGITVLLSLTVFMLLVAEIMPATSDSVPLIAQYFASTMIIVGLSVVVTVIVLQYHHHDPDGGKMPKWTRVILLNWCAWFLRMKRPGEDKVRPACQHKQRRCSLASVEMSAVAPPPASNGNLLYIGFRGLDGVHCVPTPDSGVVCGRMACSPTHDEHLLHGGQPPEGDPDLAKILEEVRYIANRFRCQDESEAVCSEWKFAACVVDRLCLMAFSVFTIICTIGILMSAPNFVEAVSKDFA
T2 sequence (P32297 32-505): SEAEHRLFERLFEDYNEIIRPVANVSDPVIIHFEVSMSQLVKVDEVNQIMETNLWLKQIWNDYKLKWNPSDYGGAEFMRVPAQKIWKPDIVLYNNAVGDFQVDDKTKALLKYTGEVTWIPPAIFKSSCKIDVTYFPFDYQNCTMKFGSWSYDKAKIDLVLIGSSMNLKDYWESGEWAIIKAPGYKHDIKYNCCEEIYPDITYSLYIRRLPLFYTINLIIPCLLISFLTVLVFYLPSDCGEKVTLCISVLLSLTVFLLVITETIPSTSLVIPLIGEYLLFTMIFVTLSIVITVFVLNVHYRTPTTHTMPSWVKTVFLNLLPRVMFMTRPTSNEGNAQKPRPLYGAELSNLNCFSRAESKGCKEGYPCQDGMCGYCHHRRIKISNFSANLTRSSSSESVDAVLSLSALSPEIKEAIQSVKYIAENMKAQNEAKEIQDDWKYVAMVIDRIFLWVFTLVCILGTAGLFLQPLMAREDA

C[N+](C)(C)[C@@H](Cc1c[nH]c2cc(Br)ccc12)C(=O)[O-] [6-bromohypaphorine]
α7 nAChR agonistic activity (α7 nAChR; as previously reported): agonistic activity in high micromolar concentrations

COC(=O)[C@H](Cc1c[nH]c2ccccc12)[N+](C)(C)C [Compound 4, methyl ester of L-hypaphorine]
increase in the expression of CD86 [1]: 26% | EC50 (human α7 nAChR; read-out: EC50): 27 µM

C[N+](C)(C)C(Cc1c[nH]c2cc([N+](=O)[O-])ccc12)C(=O)[O-] (stereo not shown) [Compound 14, 6-nitrohypaphorine]
α7 nAChR agonistic activity (human α7 nAChR; at concentrations up to 1 mM, PNU 120,596 present): does not show any agonistic activity | EC50 (human α7 nAChR): no agonistic activity

COC(=O)[C@@H](Cc1c[nH]c2cc(C(F)(F)F)ccc12)[N+](C)(C)C [Compound 15, (D)-6-trifluoromethylhypaphorine methyl ester]
agonism on α3* nAChR (calcium response) ([2]; listed as 6CF): Neither 6ID, which was most active agonist of α7 nAChR, nor 6CF showed detectable agonism on α3* nAChR at concentrations up to 30 µM | agonism on α3* nAChR (calcium response) ([2]; listed as 6CF3): does not evoke noticeable calcium response in concentrations 10, 1, and 0.1 μM | IC50 ([2]; inhibition of nicotine (100 μM)-induced calcium rise): 2.4 ± 1.2 µM | EC50 (human α7 nAChR; read-out: EC50): 5.14 µM

O=C(N[C@H]1CN2CCC1CC2)c1ccc(Cl)cc1 [PNU 282,987]
increase in the expression of CD86 [1]: no effect | STAT3 phosphorylation, MFI (STAT3 phosphorylation): increase in the phosphorylation | decrease in the expression of the TLR4 receptor [3]: 21% | increase in CD11b protein expression [4]: 10% | increase in CD11c protein expression [5]: 26%

Clc1ccc(C2CC3CCC2N3)cn1 (stereo not shown) [epibatidine]
EC50 (α7 nAChR): […]
